The results in this text go back to patent US7223759B2, “Antibacterial 3,5-diaminopiperidine-substituted aromatic and heteroaromatic compounds” (Anadys Pharmaceuticals, Inc., priority 2003, dated 2007).

The test system of the first experiment is Escherichia coli (ATCC25922) or Staphylococcus aureus (ATCC25923). The experiment is described as follows: Antibacterial MIC, microdilution method in Mueller-Hinton medium. It counts as cell-based. The following applies: Escherichia coli, 18 h, MIC in E. coli or S. aureus; two-fold serial dilutions 64 to 0.5 μg/ml in duplicate; 18 hours of incubation at 35° C.; read-out: Potency (MIC). In outline: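 Read after 18 h incubation at 35° C, MIC is the lowest compound level that blocked growth. Compounds were tested in duplicate over 64–0.5 μg/ml two-fold dilutions using Mueller-Hinton microdilution per NCCLS standard.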
For the molecule `CC(=O)c1ccc(Nc2nc(N3C[C@H](N)C[C@H](N)C3)nc(N3C[C@@H](N)C[C@@H](O)C3)n2)cc1` [1-{4-[4-((3S,5R)-3-Amino-5-hydroxy-piperidin-1-yl)-6-((3R,5S)-3,5-diamino-piperidin-1-yl)-[1,3,5]triazin-2-ylamino]-phenyl}-ethanone], the minimal inhibitory concentration (MIC) was > 64 µg/mL.

For `N[C@@H]1C[C@H](N)CN(c2nc(Nc3ccc(O)c4ncccc34)nc(N3C[C@H](N)C[C@H](N)C3)n2)C1` [N-(8-hydroxy-quinolin-5-yl)-4,6-Bis-((3R,5S)-3,5-diamino-piperidin-1-yl)-[1,3,5]triazine-2-amine], the minimum inhibitory concentration (MIC) is < 64 µg/mL. For `CN1CCCC1CCNc1nc(N2C[C@H](N)C[C@H](N)C2)nc(N2C[C@H](N)C[C@H](N)C2)n1.Cl` (stereo partly drawn) [N-[2-(1-medthyl-pyrrolidin-2-yl)-ethyl]-4,6-Bis-((3R,5S)-3,5-diamino-piperidin-1-yl)-[1,3,5]triazine-2-amine], the MIC was > 64 µg/mL.

In the case of `CN(Cc1cccc2ccccc12)c1nc(N2CCCCC2)nc(N2CCCCC2)n1.Cl` [N,N-Methyl-naphthalen-1-ylmethyl-4,6-Bis-((3R,5S)-3,5-diamino-piperidin-1-yl)-[1,3,5]triazine-2-amine], the MIC is > 64 µg/mL. On the same count and under the same terms, then `CCOC(=O)c1ccc(Nc2nc(N3C[C@H](N)C[C@H](N)C3)nc(N3C[C@H](N)C[C@H](N)C3)n2)cc1` [4-[4,6-Bis-((3R,5S)-3,5-diamino-piperidin-1-yl)-[1,3,5]triazin-2-ylamino]-benzoic acid ethyl ester], with > 64 µg/mL; and `Cl.N[C@@H]1C[C@H](N)CN(c2nc(Nc3ccccc3S(N)(=O)=O)nc(N3C[C@H](N)C[C@H](N)C3)n2)C1` [N-(2-sulfamoyl-phenyl)-4,6-Bis-((3R,5S)-3,5-diamino-piperidin-1-yl)-[1,3,5]triazine-2-amine], with > 64 µg/mL; and `N[C@@H]1C[C@H](N)CN(c2nc(NC3CCCNC3)nc(N3C[C@H](N)C[C@H](N)C3)n2)C1` (stereo partly drawn) [N-piperidin-3-yl-4,6-Bis-((3R,5S)-3,5-diamino-piperidin-1-yl)-[1,3,5]triazine-2-amine], with > 64 µg/mL. Same read-out and setting: then `Cl.N[C@@H]1C[C@H](N)CN(c2nc(Nc3ccc(O)c4ccccc34)nc(N3C[C@H](N)C[C@H](N)C3)n2)C1` [N-(4-hydroxy-naphthalen-1-yl)-4,6-Bis-((3R,5S)-3,5-diamino-piperidin-1-yl)-[1,3,5]triazine-2-amine], with < 16 µg/mL; and `Cl.NC(=O)c1[nH]cnc1Nc1nc(N2C[C@H](N)C[C@H](N)C2)nc(N2C[C@H](N)C[C@H](N)C2)n1` [N-(5-carbamoyl-1H-imidazol-4-yl)-4,6-Bis-((3R,5S)-3,5-diamino-piperidin-1-yl)-[1,3,5]triazine-2-amine], with > 64 µg/mL; and `N[C@@H]1C[C@H](N)CN(c2nc(Nc3ccccc3N3CCOCC3)nc(N3C[C@H](N)C[C@H](N)C3)n2)C1` [N-(2-morpholin-44-yl-phenyl)-4,6-Bis-((3R,5S)-3,5-diamino-piperidin-1-yl)-[1,3,5]triazine-2-amine], with > 64 µg/mL.

The experiment is the same for the next values; noted with them: Escherichia coli, 18 h, read-out: Potency (MIC).
`COc1ccccc1C(=O)Nc1ccc(Nc2nc(N3C[C@H](N)C[C@H](N)C3)nc(N3C[C@H](N)C[C@H](N)C3)n2)cc1O` [N-[3-hydroxy-4-(2-methoxy-benzoylamino)-phenyl]-4,6-Bis-((3R,5S)-3,5-diamino-piperidin-1-yl)-[1,3,5]triazine-2-amine]: the MIC was < 16 µg/mL.

For `N[C@@H]1C[C@H](N)CN(c2nc(Nc3ccc(NC(=O)c4ccc(Cl)cc4)c(O)c3)nc(NC3CCNCC3)n2)C1`, the MIC is < 16 µg/mL.

As for `N[C@@H]1C[C@H](N)CN(c2nc(Nc3ccc(O)c4ncccc34)nc(N3C[C@H](N)C[C@H](N)C3)n2)C1` [N-(8-hydroxy-quinolin-5-yl)-4,6-Bis-((3R,5S)-3,5-diamino-piperidin-1-yl)-[1,3,5]triazine-2-amine], the MIC is < 16 µg/mL. Still for that read-out and setting: under `N[C@@H]1C[C@H](N)CN(c2nc(Nc3ccc(NC(=O)c4ccc(Cl)cc4)c(O)c3)nc(N3CCN(CC(=O)N4CCOCC4)CC3)n2)C1` [4-Chloro-N-(4-{4-((3S,5R)-3,5-diamino-piperidin-1-yl)-6-[4-(2-morpholin-4-yl-2-oxo-ethyl)-piperazin-1-yl]-[1,3,5]triazin-2-ylamino}-2-hydroxy-phenyl)-benzamide] stands > 64 µg/mL. Still for that read-out and setting: under `CCCC(=O)Nc1ccc(Nc2nc(N3C[C@H](N)C[C@H](N)C3)nc(N3C[C@H](N)C[C@H](N)C3)n2)cc1O` [N-(4-butyrylamino-3-hydroxy-phenyl)-4,6-Bis-((3R,5S)-3,5-diamino-piperidin-1-yl)-[1,3,5]triazine-2-amine] stands > 64 µg/mL; under `N[C@@H]1C[C@H](N)CN(c2nc(Nc3ccc(NC(=O)c4ccc(Cl)cc4)c(O)c3)nc(NC3CCCNC3)n2)C1` (stereo partly drawn) [4-Chloro-N-{4-[4-((3S,5R)-3,5-diamino-piperidin-1-yl)-6-(piperidin-3-ylamino)-[1,3,5]triazin-2-ylamino]-2-hydroxy-phenyl}-benzamide], < 16 µg/mL. As to `NC[C@H]1[C@@H](O)CCN1c1nc(Nc2ccc(NC(=O)c3ccc(Cl)cc3)c(O)c2)nc(N2C[C@H](N)C[C@H](N)C2)n1` [N-{4-[4-((2S,3S)-2-Aminomethyl-3-hydroxy-pyrrolidin-1-yl)-6-((3R,5S)-3,5-diamino-piperidin-1-yl)-[1,3,5]triazin-2-ylamino]-2-hydroxy-phenyl}-4-chloro-benzamide], the MIC is < 64 µg/mL. With `N[C@@H]1C[C@H](N)CN(c2nc(Nc3ccc(NC(=O)c4ccc(Cl)cc4O)c(C(=O)Nc4ccccc4)c3)nc(N3C[C@H](N)C[C@H](N)C3)n2)C1` [N-[4-(4-chloro-2-hydroxy-benzoylamino)-3-phenylcarbamoyl-phenyl]-4,6-Bis-((3R,5S)-3,5-diamino-piperidin-1-yl)-[1,3,5]triazine-2-amine], the MIC was < 16 µg/mL. The same measure, in the same setting: under `N[C@@H]1C[C@H](N)CN(c2nc(Nc3ccc(S(=O)(=O)Nc4ccc5cn[nH]c5c4)cc3)nc(N3C[C@@H](N)[C@@H](N)C3)n2)C1` [4-[4-((3R,5S)-3,5-Diamino-piperidin-1-yl)-6-((3R,4S)-3,4-diamino-pyrrolidin-1-yl)-[1,3,5]triazin-2-ylamino]-N-(1H-indazol-6-yl)-benzenesulfonamide] stands > 64 µg/mL; under `N[C@@H]1C[C@H](N)CN(c2nc(Nc3ccc4c(c3)-c3ccccc3C4=O)nc(N3CCC[C@@H](O)C3)n2)C1` [3-[4-((3S,5R)-3,5-Diamino-piperidin-1-yl)-6-((R)-3-hydroxy-piperidin-1-yl)-[1,3,5]triazin-2-ylamino]-fluoren-9-one], < 64 µg/mL. As for `Cc1cc(=O)oc2cc(Nc3nc(NCCN)nc(N4C[C@H](N)C[C@H](N)C4)n3)ccc12` [7-[4-(2-Amino-ethylamino)-6-((3R,5S)-3,5-diamino-piperidin-1-yl)-[1,3,5]triazin-2-ylamino]-4-methyl-chromen-2-one], the MIC is > 64 µg/mL. Still for that read-out and setting: then `NC[C@@H]1C[C@H](CN)CN(c2nc(Nc3ccc(NC(=O)c4ccc5ccccc5c4O)cc3)nc(N3C[C@H](N)C[C@H](N)C3)n2)C1` [1-Hydroxy-naphthalene-2-carboxylic acid {4-[4-((3R,5S)-3,5-bis-(aminomethyl)-piperidin-1-yl)-6-((3R,5S)-3,5-diamino-piperidin-1-yl)-[1,3,5]triazine-2-ylamino]-phenyl}-amide], with < 16 µg/mL. With `N[C@@H]1C[C@H](N)CN(c2nc(Nc3ccc(S(=O)(=O)Nc4ccccn4)cc3)nc(N3C[C@H](N)C[C@H](N)C3)n2)C1` [N-[4-(pyridin-2-ylsulfamoyl)-phenyl]-4,6-Bis-((3R,5S)-3,5-diamino-piperidin-1-yl)-[1,3,5]triazine-2-amine], the MIC is > 64 µg/mL.

In the case of `N[C@@H]1C[C@H](N)CN(c2nc(NNC(=O)c3ccccc3O)nc(N3C[C@H](N)C[C@H](N)C3)n2)C1` [2-Hydroxy-benzoicacid N′-[4-((3R,5S)-3,5-diamino-piperidin-1-yl)-6-((3S,5R)-3,5-diamino-piperidin-1-yl)-[1,3,5]triazin-2-yl]-hydrazide], the MIC was < 64 µg/mL. Same read-out and setting: then `COc1cccc(S(=O)(=O)Nc2ccc(Nc3nc(N4C[C@H](N)C[C@H](N)C4)nc(N4C[C@H](N)C[C@H](N)C4)n3)cc2O)c1` [N-[3-hydroxy-4-(3-methoxy-benzenesulfonylamino)-phenyl]-4,6-Bis-((3R,5S)-3,5-diamino-piperidin-1-yl)-[1,3,5]triazine-2-amine], with < 64 µg/mL; and `NC[C@@H]1C[C@H](CN)CN(c2nc(Nc3ccc(NC(=O)c4ccc(Cl)cc4)c(O)c3)nc(N3C[C@H](N)C[C@H](N)C3)n2)C1` [N-{4-[4-((3R,5S)-3,5-Bis-(aminomethyl)-piperidin-1-yl)-6-((3R,5S)-3,5-diamino-piperidin-1-yl)-[1,3,5]triazin-2-ylamino]-2-hydroxy-phenyl}-4-chloro-benzamide], with < 16 µg/mL. Same read-out and setting: under `Cc1nc(NS(=O)(=O)c2ccc(Nc3nc(N4C[C@H](N)C[C@H](N)C4)nc(N4C[C@H](N)C[C@H](N)C4)n3)cc2)oc1C` [N-[4-(4,5-dimethyl-oxazol-2-ylsulfamoyl)-phenyl]-4,6-Bis-((3R,5S)-3,5-diamino-piperidin-1-yl)-[1,3,5]triazin-2-amine] stands > 64 µg/mL; under `N[C@@H]1C[C@H](N)CN(c2nc(Nc3ccccc3N3CCCCC3)nc(N3C[C@H](N)C[C@H](N)C3)n2)C1` [N-(2-piperidin-1-yl-phenyl)-4,6-Bis-((3R,5S)-3,5-diamino-piperidin-1-yl)-[1,3,5]triazine-2-amine], > 64 µg/mL.

Still in this experiment, the particulars now being: MIC in E. coli or S. aureus; two-fold serial dilutions 64 to 0.5 μg/ml in duplicate; 18 hours of incubation at 35° C.
As to `CC(=O)c1ccc(Nc2nc(N3C[C@H](N)C[C@H](N)C3)nc(N3C[C@H](CN)C[C@H](CN)C3)n2)cc1` [1-{4-[4-((3S,5R)-3,5-Bis-(aminomethyl)-piperidin-1-tl)-6-((3R,5S)-3,5-diamino-piperidin-1-l)-[1,3,5]triazin-2-ylamino]-phenyl}-ethanone], the “Potency (MIC)” value is listed as “− (− means MIC>64 μg/ml in E. coli or S. aureus)”.
